Experiment [1] deals with tetrabenazine-induced sedation in mice. Description: Antitetrabenazine test: prevention of tetrabenazine-induced sedation and depression (exploratory activity and ptosis). Type of experiment: in vivo, mice (Carworth CF1 S female). The note with it: Mus musculus, po, 1 h. The procedure:
This mouse test is predictive of human antidepressant response (Everett, G. M., "The Dopa Response Potentiation Test and Its Use in Screening for Antidepressant Drugs", pp. 164-167 in "Antidepressant Drugs", Proceedings of the First International Symposium, S. Garattini and M. N. G. Dukes, eds., 1967).
Groups of 10 Carworth CF1 S female mice, 18-21 g each, were fasted 1.5 hours and were intubated with a hydroxyguanidine as antagonist to tetrabenazine at oral doses of 5, 25 and 125 mg/kg in 0.20 ml of 1% methyl cellulose (Methocel.) Thirty minutes later the mice were challenged with tetrabenazine, 32 mg/kg intraperitoneally (dissolved in 0.20 ml of 0.05M KCl at pH 2.0). One hour after the hydroxyguanidine compound (30 minutes after tetrabenzine) the mice were examined for signs of exploratory activity and ptosis (eye-lid closure). Normal exploratory activity (relief from sedation) was recorded when a mouse lifted by the tail from a group of 10 in a testing box and placed on a stainless steel testing box lid (12.5 inch × 8 inch × 0.33 inch mesh) either turned its head horizontally 30° or moved to the edge of the screen withi 10 seconds after being placed on the screen. Relief from ptosis was recorded when exactly 2 seconds after placing the mouse facing the observer, lid closure was less than 50% in both eyes.

The test system is the same in experiment [2]. The description is as above. It is filed as in vivo, mice (Carworth CF1 S female). The note with it: up to 81 mg/kg.
Setting [3] is: tetrabenazine 32 mg/kg i.p. 30 min later, read 1 h after compound, read-out: Antitetrabenazine ED 50, Exploratory.
[4] abbreviates: tetrabenazine 32 mg/kg i.p. 30 min later, read 1 h after compound, read-out: Antitetrabenazine ED 50, Ptosis (dose which blocked ptosis in 50% of the mice).
Setting [5] is: tested as hydroxyguanidine HCl salt, tetrabenazine 32 mg/kg i.p., read-out: Antitetrabenazine ED 50, Exploratory.
[6] abbreviates: tested as hydroxyguanidine HCl salt, tetrabenazine 32 mg/kg i.p., read-out: Antitetrabenazine ED 50, Ptosis.

Molecules are shown by their SMILES. Like-named read-outs stand apart in the source and are kept apart here.

Regarding `CCN(C(N)=NO)c1ccccc1` [Example 12, 1-phenyl-1-ethylhydroxyguanidine], the ED50 is 15.6 mg/kg in experiment [1] (setting [3]) and 3 mg/kg in experiment [1] (setting [4]).

Turning to `CN(C(N)=NO)C1CCCCC1` [Example 18, 1-cyclohexyl-1-methylhydroxyguanidine], the values for the ED50 in experiment [1] (setting [3]) and in experiment [1] (setting [4]) were above 81 mg/kg and 9 mg/kg, respectively.

As to `Cc1ccc(N(C)C(N)=NO)cc1` [Example 13, 1-p-tolyl-1-methylhydroxyguanidine], the ED50 in experiment [1] (setting [3]) stood at 3 mg/kg; in experiment [1] (setting [4]) it was 0.88 mg/kg.

Consider `CN(Cc1ccc(F)cc1)C(N)=NO` [Example 5, 1-p-fluorobenzyl-1-methylhydroxyguanidine], for which the ED50 in experiment [1] (setting [3]) is above 81 mg/kg; in experiment [1] (setting [4]), 8.1 mg/kg.

Regarding `CCN(Cc1ccccc1)C(N)=NO` [Example 3, 1-benzyl-1-ethylhydroxyguanidine], the ED50 in experiment [1] (setting [3]) was determined as 9 mg/kg; in experiment [1] (setting [4]), 0.39 mg/kg.

Take `CCCN(C(N)=NO)c1ccccc1` [Example 17, 1-phenyl-1-n-propylhydroxyguanidine]: the ED50 in experiment [1] (setting [3]) is above 81 mg/kg; in experiment [1] (setting [4]), 20 mg/kg.

Take `CN(Cc1cccc([N+](=O)[O-])c1)C(N)=NO` [Example 21, 1-m-nitrobenzyl-1-methylhydroxyguanidine]: the ED50 in experiment [1] (setting [3]) is above 81 mg/kg; in experiment [1] (setting [4]), 66 mg/kg.

Take `Cc1ccc(CN(C)C(N)=NO)cc1` [Example 7, 1-p-methylbenzyl-1-methylhydroxyguanidine]: the results for the ED50 in experiment [1] (setting [3]) and in experiment [1] (setting [4]) were above 81 mg/kg and 23 mg/kg, respectively.

Take `CNC(=NO)Nc1ccccc1` [Example 26, 1-Phenyl-3-methyl-2-hydroxyguanidine]: the ED50 is above 81 mg/kg in experiment [1] (setting [3]) and 12.2 mg/kg in experiment [1] (setting [4]).

Consider `COc1ccc(CN(C)C(N)=NO)cc1` [Example 4, 1-p-methoxybenzyl-1-methylhydroxyguanidine], for which the ED50 in experiment [1] (setting [3]) was above 81 mg/kg; in experiment [1] (setting [4]) it was 59 mg/kg.

On to `Cc1cccc(N(C)C(N)=NO)c1` [Example 24, 1-m-tolyl-1-methylhydroxyguanidine], for which, in experiment [1] (setting [4]), the ED50 is 0.4 mg/kg.

For `COc1ccc(N(C)C(N)=NO)cc1` [Example 14, 1-p-methoxyphenyl-1-methylhydroxyguanidine], the ED50 in experiment [1] (setting [3]) is above 81 mg/kg; in experiment [1] (setting [4]), 20.5 mg/kg.

As to `CN(C(N)=NO)c1ccccc1` [Example 1, 1-phenyl-1-methylhydroxyguanidine], the ED50 in experiment [1] (setting [5]) was 9 mg/kg; in experiment [1] (setting [6]), 1.1 mg/kg; in experiment [1] (setting [3]), above 81 mg/kg; in experiment [1] (setting [4]), 1.1 mg/kg.

`CN(C(N)=NO)c1cccc(Cl)c1` [Example 22, 1-m-chlorophenyl-1-methylhydroxyguanidine]: the ED50 is above 81 mg/kg in experiment [1] (setting [3]) and 0.7 mg/kg in experiment [1] (setting [4]).

On to `CN(Cc1ccc(Cl)cc1)C(N)=NO` [Example 10, 1-p-chlorobenzyl-1-methylhydroxyguanidine], for which the ED50 in experiment [1] (setting [3]) was above 81 mg/kg; in experiment [1] (setting [4]), 10.8 mg/kg.

Turning to `CNC(=NO)NCc1ccccc1` [Example 27, 1-Benzyl-3-methyl-2-hydroxyguanidine], the “Activity in the antitetrabenazine screen” value in experiment [2] was “inactive”.

In the case of `CN(C(N)=NO)C1CCCC1` [Example 25, 1-cyclopentyl-1-methylhydroxyguanidine], the ED50 in experiment [1] (setting [5]) was above 81 mg/kg; in experiment [1] (setting [6]) it was 3 mg/kg.

Consider `CN(Cc1ccccc1)C(N)=NO` [Example 2, 1-benzyl-1-methylhydroxyguanidine], for which the ED50 in experiment [1] (setting [5]) was above 81 mg/kg; in experiment [1] (setting [6]), 0.43 mg/kg; in experiment [1] (setting [3]), 9 mg/kg; in experiment [1] (setting [4]), 0.18 mg/kg.

In the case of `NC(=NO)NCc1ccccc1` [Example 19, 1-benzylhydroxyguanidine], the ED50 in experiment [1] (setting [5]) is above 81 mg/kg; in experiment [1] (setting [6]) it was 12.5 mg/kg.

With `CN(Cc1cccc(Cl)c1)C(N)=NO` [Example 20, 1-m-chlorobenzyl-1-methylhydroxyguanidine], the values for the ED50 in experiment [1] (setting [3]) and in experiment [1] (setting [4]) were above 81 mg/kg and 0.4 mg/kg, respectively.

Regarding `CN(C(N)=NO)c1ccc(Cl)cc1` [Example 11, 1-p-chlorophenyl-1-methylhydroxyguanidine], the ED50 stood at 81 mg/kg in experiment [1] (setting [3]) and 0.82 mg/kg in experiment [1] (setting [4]).

On to `CN(Cc1ccc([N+](=O)[O-])cc1)C(N)=NO` [Example 8, 1-p-nitrobenzyl-1-methylhydroxyguanidine], for which the ED50 in experiment [1] (setting [3]) was above 81 mg/kg; in experiment [1] (setting [4]), 47 mg/kg.

On to `CN(Cc1ccc(Cl)c(Cl)c1)C(N)=NO` [Example 9, 1-(3,4-dichlorobenzyl)-1-methylhydroxyguanidine], for which the ED50 was above 81 mg/kg in experiment [1] (setting [3]) and 4.8 mg/kg in experiment [1] (setting [4]).

Regarding `CN(Cc1ccc(Br)cc1)C(N)=NO` [Example 6, 1-p-bromobenzyl-1-methylhydroxyguanidine], the results for the ED50 in experiment [1] (setting [3]) and in experiment [1] (setting [4]) were above 81 mg/kg and 17.4 mg/kg, respectively.

Take `Cc1ccc(N(C)C(N)=NO)cc1C` [Example 23, 1-(3,4-xylyl)-1-methylhydroxyguanidine]: the results for the ED50 in experiment [1] (setting [3]) and in experiment [1] (setting [4]) were above 81 mg/kg and 4.9 mg/kg, respectively.

For the origin of these results see patent US3954995A, “Mono-and disubstituted hydroxyguanidines in the treatment of depression” (E. I. Du Pont de Nemours and Company, priority 1974, dated 1976).
